Source: patent publication US6969760B2, “Jak kinases and regulation of cytokine signal transduction” (St. Jude Children's Research Hospital, priority 1993, dated 2005)
Several values for one entry are separate records, joined by “and”; a condition that tells them apart may be missing. Equal values may be shown once.

Assays:
[1] = target: T1, Jak2 (Mus musculus, UniProt Q62120); assay: In vitro kinase assay with Jak2 immunoprecipitated from cell lysates (32P-gamma-ATP, autoradiography); type: biochemical; settings: genestein at 0.1 mM in the in vitro kinase assay
T1 construct: endogenous in cells; host or cells: mammalian cells stimulated with EPO or IL-3
Experimental: In this assay, purified Jak2 is precipitated from cell lysates using Jak2-specific antisera bound to protein A-sepharose. The immunoprecipitated Jak2 is then washed with kinase buffer (50 mM NaCl, 5 mM MgCl2, 5 mM MnCl2, 0.1 mM Na3VO4, 10 mM HEPES pH 7.4) and subsequently incubated for 30 minutes at room temperature with an equal volume of kinase buffer containing 0.25 mCi/ml ^32P-gamma-ATP. After extensive washing, proteins are eluted with sample buffer for SDS-PAGE and separated on 7% gels. ^32P-containing proteins are then visualized by autoradiography.
Thus, activation of the Jak2 catalytic activity is correlated with the biological activities of these cytokines.

[2] = test system: EPO-induced cell proliferation; settings: cited from earlier work
[3] = test system: tyrosine kinase activity associated with the CNTF receptor complex (gp130, LIFRβ); assay: In vitro tyrosine kinase activity associated with the purified CNTF receptor complex; type: biochemical; settings: compared with CNTF-treated intact cells
Experimental: Cell lines were passaged and maintained as previously described (Ip et al., Cell 69:1121-1132 (1992). COS cell transfections were carried out by a DEAE protocol (Davis et al., Science 260:1805-1808 (1993)). Plates of cells were starved in serum-free RPMI medium for 2-4 hours, then stimulated with 50 ng/ml of the indicated factor for 5 minutes. Cells were harvested and lysed as previously described (Stahl et al., J. Biol. Chem. 268:7628-7631 (1993)), except that 1% Brij 96 (Sigma) or 1% NP-40 (Boehringer) was used as indicated. Immunoprecipitation, electrophoresis, and anti-phosphotyrosine immunoblotting with monoclonal antibody 4G10 (Upstate Biotechnology) and detection via enhanced chemiluminescence (Amersham) was carried out as previously described (Id). For in vitro kinase assays, the washed beads were incubated for 15 min at room temperature in 20 mM Hepes (pH 7.2), 10 mM MnCl2, 30 mM sodium orthovanadate and 10 MCi of (g-^32P)ATP (NEN DUPONT). Electrophoresis sample buffer was added and the samples were boiled, subjected to SDS PAGE, and electroblotted to PVDF. The membrane was then incubated in 1 M NaOH at 65° C. for 60 min to destroy serine and threonine phosphate before autoradiography.

[4] = test system: Jak2; assay: GH-dependent tyrosyl phosphorylation of Jak2 (αJak2 immunoprecipitation, αPY immunoblot) in 3T3-F442A fibroblasts; type: cell-based
Experimental: Jak2 is a tyrosine kinase of the correct size (Mr of ˜130,000; see example 1) to be the GHR-associated kinase and was therefore tested for its ability to be phosphorylated in response to GH. Solubilized proteins from GH-treated 3T3-F442A fibroblasts were immunoprecipitated using antiserum to Jak2 (αJak2) and analyzed by anti-phosphotyrosine antibody (αPY) immunoblot. Cells were incubated with varying physiological concentrations of GH in ranging in 10-fold increments from 0.5 ng/ml to 500 ng/ml (the standard concentration used) for 0, 0.5, 5, 50, and 60 minutes.
Cells were grown to confluence and deprived of serum overnight as described previously (Wang, X. et al., J. Biol. Chem. 268:3573-3579 (1993)). Cells were incubated for the indicated times with hormone or growth factor as indicated at 37° C. in 95% air, 5% CO2, rinsed with three changes of ice-cold 10 mM sodium phosphate (pH 7.4), 137 mM NaCl, 1 mM Na3VO4, and scraped in lysis buffer (50 mM Tris (pH 7.5), 0.1% Triton X-100, 137 mM NaCl, 2 mM EGTA, 1 mM Na3VO4, 1 mM phenylmethylsulfonyl fluoride, 10 μg/ml aprotinin, and 10 μg/ml leupeptin) on ice. Cell lysates were centrifuged at 12,000×g for 10 min, and the resulting supernatants were incubated on ice 90 min with the indicated antibody. […]

T1 sequence (Q62120 whole entry): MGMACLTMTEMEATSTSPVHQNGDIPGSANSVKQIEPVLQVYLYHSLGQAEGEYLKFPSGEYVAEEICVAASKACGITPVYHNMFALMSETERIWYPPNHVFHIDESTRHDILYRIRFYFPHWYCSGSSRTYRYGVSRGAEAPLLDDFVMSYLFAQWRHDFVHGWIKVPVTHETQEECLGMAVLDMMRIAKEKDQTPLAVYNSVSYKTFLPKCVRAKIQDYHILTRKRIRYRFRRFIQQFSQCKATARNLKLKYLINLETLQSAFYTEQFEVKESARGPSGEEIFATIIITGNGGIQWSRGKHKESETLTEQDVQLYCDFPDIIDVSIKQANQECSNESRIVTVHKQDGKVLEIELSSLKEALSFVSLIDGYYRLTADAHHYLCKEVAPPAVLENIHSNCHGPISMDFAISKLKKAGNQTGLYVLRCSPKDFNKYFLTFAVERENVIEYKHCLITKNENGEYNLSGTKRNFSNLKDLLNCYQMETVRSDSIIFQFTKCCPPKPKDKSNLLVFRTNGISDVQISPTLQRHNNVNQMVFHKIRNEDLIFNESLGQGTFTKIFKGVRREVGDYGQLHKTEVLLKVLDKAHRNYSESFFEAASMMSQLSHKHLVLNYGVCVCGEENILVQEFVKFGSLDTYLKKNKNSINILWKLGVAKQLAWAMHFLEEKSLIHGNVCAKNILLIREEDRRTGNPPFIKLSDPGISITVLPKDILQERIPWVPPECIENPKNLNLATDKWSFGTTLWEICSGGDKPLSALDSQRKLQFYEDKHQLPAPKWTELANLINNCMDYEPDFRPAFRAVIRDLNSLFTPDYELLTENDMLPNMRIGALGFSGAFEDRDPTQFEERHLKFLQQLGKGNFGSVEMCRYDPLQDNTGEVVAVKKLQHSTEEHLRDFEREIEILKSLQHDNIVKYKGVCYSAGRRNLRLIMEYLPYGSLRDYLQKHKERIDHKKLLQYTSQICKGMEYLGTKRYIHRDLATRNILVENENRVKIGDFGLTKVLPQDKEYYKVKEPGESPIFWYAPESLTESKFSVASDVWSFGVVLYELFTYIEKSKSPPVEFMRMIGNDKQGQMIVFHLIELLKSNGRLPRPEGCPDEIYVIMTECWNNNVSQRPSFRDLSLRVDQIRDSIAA

O=c1c(-c2ccc(O)cc2)coc2cc(O)cc(O)c12 [genestein]
reduction in the tyrosine kinase activity of Jak2 [1]: 2 fold | effect on ability of EPO to stimulate cell growth [2]: inhibit the ability of EPO to stimulate cell growth

CN[C@@H]1C[C@H]2O[C@@](C)([C@@H]1OC)n1c3ccccc3c3c4c(c5c6ccccc6n2c5c31)C(=O)NC4 [staurosporine]
sensitivity of receptor-associated in vitro kinase activity to staurosporine [3]: same sensitivity to staurosporine as that observed upon addition of CNTF to intact cells

GH: Recombinant human GH (hGH) provided by Eli Lilly
earliest time at which GH-dependent tyrosyl phosphorylation of Jak2 was clearly evident [4]: 30 s | lowest GH concentration at which tyrosyl phosphorylation of Jak2 was clearly evident [4]: 5.0 ng/ml and 230 pM
